The text below walks through data of ChEMBL document CHEMBL1159027, “Microcolins A and B, new immunosuppressive peptides from the blue-green alga Lyngbya majuscula” (J Nat Prod, 1992).

Data set [1] in a line: Toxicity in mouse lymphocytes. Format: cell-based, Lymphocyte. As to conditions: read-out: TC50 (the source's name).
The test system of the next data set is Lymphocyte. The experiment in a line: Immunosuppressive activity in mouse lymphocyte assessed as suppression of two-way mixed reaction. Format: functional, cell-based.

Each structure is given as a SMILES string. pEC50: −log10 of the molar value.

What is called pEC50 is the negative decadic logarithm of the EC50, by convention in mol/L. `CCCC[C@@H](C)C[C@@H](C)C(=O)N(C)[C@@H](CC(C)C)C(=O)N[C@H](C(=O)N(C)[C@H](C(=O)N1C[C@@H](O)C[C@H]1C(=O)N1C(=O)C=C[C@@H]1C)C(C)C)[C@H](C)OC(C)=O` [MICROCOLIN A]: the CC50 in data set [1] turned out to be 22.6 nM. Moreover, in the data set with Lymphocyte, the pEC50 is 8.82.

Regarding `CCCC[C@@H](C)C[C@@H](C)C(=O)N(C)[C@@H](CC(C)C)C(=O)N[C@H](C(=O)N(C)[C@H](C(=O)N1CCC[C@H]1C(=O)N1C(=O)C=C[C@@H]1C)C(C)C)[C@H](C)OC(C)=O` [MICROCOLIN B], the CC50 in data set [1] came out at 191 nM. In the data set with Lymphocyte, the pEC50 is 7.37.
